A short description of series [1]: RSSH generation and quantification of cyclic ureas by UPLC-MS with HPE-IAM or NEM trap. It is filed as physicochemical. The procedure: Precursor 1a was dissolved in DMSO to afford a 1 mM stock solution. Similarly, HPE-IAM and N-ethyl maleimide (NEM) were independently dissolved in DMSO to obtain 50 mM stock solutions. To a 20 mL scintillation vial, HPE-IAM or NEM (30 μL, 50 mM) was added in pH 7.4 ammonium bicarbonate buffer (2.94 mL) containing the DTPA (100 μM). The resulting solution was pre-incubated at 37° C. for 10 min. Precursor 1a (30 μL, 1 mM) was then added into the mixture and incubated for 15 min at 37° C. An aliquot of the reaction mixture (500 μL) was withdrawn, 4-hydroxyphenylacetamide (10 μM) was added as internal standard, and analyzed using UPLC-MS as follows: Mobile phase: 0-1 min 90% water+0% ACN+10% formic acid (0.1%); 1-7.5 min gradient up to 10% water+80% ACN+10% formic acid (0.1%); 7.5-8.4 min 10% water+80% ACN+10% formic acid (0.1%); 8.4-8.5 min gradient up to 90% water+0% ACN+10% formic acid (0.1%), 8.5-10 min 90% water+0% ACN+10% formic acid (0.1%). Flow rate=0.3 mL/min. […] These studies were conducted at least in triplicate and representative spectra are presented.
Precursors 7a-d (10 μM) were independently incubated with HPE-IAM (500 μM) in pH 7.4 ammonium bicarbonate buffer (50 mM) containing DTPA (100 μM) at 37° C. The reaction mixture (500 μL) was analyzed using UPLC-MS. To quantify 2a-d generated from these precursors, a calibration curve of each individual cyclic urea with known concentrations was independently generated.
Precursor 1a was dissolved in DMSO to afford a 1 mM stock solution. Similarly, HPE-IAM was dissolved in DMSO to obtain a 50 mM stock solution. To a 20 mL scintillation vial, HPE-IAM (30 μL, 50 mM) was added in pH 7.4 ammonium bicarbonate buffer (2.94 mL) containing the DTPA (100 μM). The resulting solution was pre-incubated at 37° C. for 10 min. Precursor 1a (30 μL, 1 mM) was then added into the mixture and incubated for 15 min at 37° C. An aliquot of the reaction mixture (500 μL) was withdrawn and analyzed using UPLC-MS as follows: Mobile phase: 0-1 min 90% water+0% ACN+10% formic acid (0.1%); 1-7.5 min gradient up to 10% water+80% ACN+10% formic acid (0.1%); 7.5-8.4 min 10% water+80% ACN+10% formic acid (0.1%); 8.4-8.5 min gradient up to 90% water+0% ACN+10% formic acid (0.1%), 8.5-10 min 90% water+0% ACN+10% formic acid (0.1%). Flow rate=0.3 mL/min. The mass signals for product of RSSH trapping with HPE-IAM were obtained via deconvolution using MassLynx 4.1 software. These studies were conducted at least in triplicate and representative spectra are presented.
Precursors 7a-d (10 μM) were independently incubated with HPE-IAM (500 μM) in pH 7.4 ammonium bicarbonate buffer (50 mM) containing DTPA (100 μM) at 37° C. This reaction mixture was analyzed by UPLC-MS as follows: Mobile phase: 0-1 min 90% water+0% ACN+10% formic acid (0.1%); 1-7.5 min gradient up to 10% water+80% ACN+10% formic acid (0.1%); 7.5-8.4 min 10% water+80% ACN+10% formic acid (0.1%); 8.4-8.5 min gradient up to 90% water+0% ACN+10% formic acid (0.1%), 8.5-10 min 90% water+0% ACN+10% formic acid (0.1%). Flow rate=0.3 mL/min. To quantify 2a-d generated from these precursors, a calibration curve of each individual cyclic urea with known concentrations was independently generated.

The subject of series [2] is H9c2 cells. Briefly: Cytotoxicity study with SYTOX Green nucleic acid stain. It is filed as cell-based, rat. Conditions: 24 h exposure, 0-150 μM. The procedure: H9c2(2-1) embryonic rat heart myoblasts were obtained from the American Type Culture Collection. Cells were grown in Dulbecco's […] (DMEM), supplemented with fetal bovine serum (FBS) 10%, penicillin 100 U/mL and streptomycin 100 μg/mL. They were propagated in T75-flasks, split before reaching 70-80% confluence (usually every day or every second day), and used within 11 passages. Cells were passaged to tissue culture treated 96-well microtiter plates at the specified density in 180 μL volumes and incubated for 24 h.
Cells were seeded at a density of 1×10^4 cells/well. […] Then, 100 μL of media containing 3 μM SYTOX™ Green nucleic acid stain (Invitrogen) was added and the cells were incubated for 2 h before fluorescence readings were obtained at 485Ex/538Em (Step 1). Finally, an additional 100 μL of media containing 3 μM SYTOX™ and 0.2% Triton X-100 was added in order to permeabilize all cells and incubated for 1 h before fluorescence values measured (Step 2). The relative % cells surviving was calculated as a 100% minus the ratio of the fluorescence value of Step 1 over Step 2 (% cells surviving=100%−(FL538 (Step 1)/FL538(Step 2)).
Cells were seeded at a density of 1×10^4 cells/well. […] The relative % cells surviving was calculated as a 100% minus the ratio of the fluorescence value of Step 1 over Step 2 (% cells surviving=100%−(FL538 (Step 1)/FL538(Step 2)).

The nature of series [3]: COS release using membrane inlet mass spectrometry (MIMS). Conditions: precursor 50 μM, NAC 0.25 mM (5 equiv.), pH 7.4 phosphate buffer saline with DTPA, 37° C. It is filed as physicochemical. The procedure:
(§1) COS was analyzed using a Hiden HPR-40 MIMS system with a sample cell and membrane probe that have been optimized to detect gases dissolved in aqueous solution as described previously. Cline et al., 2011. A stock solution of N-acetyl-cysteine (25 mM) was prepared in DI water. RSSH precursor stock solutions (5 mM) were prepared in DMSO. These solutions were degassed by purging with nitrogen for 10 min before COS release analysis. Typically, 20 mL phosphate buffer solution (10 mM) was added to the sample cell, degassed and purged with a continuous flow of argon for 15 min. N-acetyl cysteine (200 μL, 25 mM) and RSSH precursor (200 μL, 5 mM) were then injected using a gas tight syringe and ion current at m/z 60 (COS^+) were collected for 2 h (source pressure was approximately 1×10^−7 to 5×10^−7 Torr).
as §1, with “(COS*)” for “(COS^+)”

Series [4] is described as follows: RSSH generation in the presence of N-acetyl cysteine by UPLC-MS. It is filed as physicochemical. Conditions: precursor 100 μM, NAC 500 μM, pH 7.4 ammonium bicarbonate buffer with DTPA, 37° C. The procedure: […] The resulting mixture was incubated at 37° C. An aliquot (200 μL) of reaction mixture was withdrawn at specified time points and quenched with 1% formic acid (200 μL). 3-Amino-benzoic acid (50 μM) was added to each sample as internal standard prior to UPLC-MS analysis. To quantify 2a-d generated from these precursors, a calibration curve for each individual cyclic urea with known concentrations was independently generated.
[…] The resulting mixture was incubated at 37° C. An aliquot ([…]) of reaction mixture was withdrawn at specified time points and quenched with 1% formic acid (200 μL). 3-amino-benzoic acid (50 μM) was added to each sample as internal standard prior to UPLC-MS analysis. To quantify 2a-d generated from these precursors, the calibration curve of each individual cyclic urea with known concentrations was independently generated.

A short description of series [5]: Kinetics of RSSH release from precursors monitored by HPLC (HPE-IAM trapping). It is filed as physicochemical. Conditions: precursor 100 μM, HPE-IAM 5 mM, pH 7.4 phosphate buffer with DTPA, 37° C. As for the experimental part: (§2) Precursors 7a-d were dissolved in DMSO to afford 10 mM stock solutions. HPE-IAM was dissolved in DMSO to obtain a 100 mM stock solution. […] This solution was pre-incubated for 10 min at 37° C. and then precursor 7a-d (30 μL, 10 mM) were independently added into the mixture. The resulting solution was incubated at 37° C. At different time points, an aliquot of 200 μL was taken and quenched with 200 μL […] solution. These samples were stored at 0° C. until HPLC analysis was performed. The sample (20 μL) was injected into a high-performance liquid chromatography (HPLC) equipped with Phenomenex C-18 reverse phase column (250 mm×4.6 mm, 5 μm). HPLC Method: mobile phase A (H2O) and mobile phase B (ACN), flow rate: 1 mL/min, run time: 20 min, the gradient elution method: 10% to 40% B from 0 to 12 min, 40% to 80% B from 12 to 20 min. The elution was monitored by a UV detector at 275 nm. A calibration curve was generated using RSS-HPE-AM 9 to quantify RSSH generation from 7a-d.
as §2, with “by a variable UV detector” for “by a UV detector”

As for `CNCCN(C)C(=O)SSCC(NC(C)=O)C(=O)OC` (stereo not shown) [Precursor 1a, 2-(((2-Acetamido-3-methoxy-3-oxopropyl)disulfannecarbonyl)(methyl)amino)-N-methylethan-1-aminium], in series [1] (NEM 50 equiv., pH 7.4 buffer), the “yield of byproduct 2a” value turned out to be 74%. Further, the “yield of cyclic urea byproduct” value in series [1] (precursor 10 μM, HPE-IAM 500 μM (50 equiv.), pH 7.4 ammonium bicarbonate buffer, 37° C.) is given as 52%. The “byproduct 2a formation” value in series [1] (precursor 10 μM, NEM 500 μM, pH 7.4 ammonium bicarbonate buffer, 37° C., 15 min) amounted to 7.4 ± 0.2 µM.

As for `CN1CCNC1=O` [byproduct 2b, 1-methylimidazolidin-2-one], in series [2], the “cytotoxicity toward H9c2 cells” value is “no toxicity”.

In the case of `COC(=O)C(NC(C)=O)C(C)(C)SSC(=O)N(C)CCCN` (stereo not shown) [Precursor 7d, 3-(((3-acetamido-4-methoxy-2-methyl-4-oxobutan-2-yl)disulfannecarbonyl)(methyl)amino)propan-1-aminium], the “COS release (m/z=60 signal)” value in series [3] was “produce mainly COS”. Also, in series [4], the “Byproduct % (yield of cyclic urea 2a-d)” value worked out at 5.9 ± 0.4%. Further, the “Hydropersulfide Yield (%)” value in series [5] was 82 ± 1%.
